# Experimental data from article PMC7265341, “Quantifying CDK inhibitor selectivity in live cells” (Nature Communications, 2020).
# Where two headings read alike, the source gives them in different places.
# How the values were obtained:
# CDK18/Cyclin Y = CDK18/Cyclin Y (Homo sapiens, UniProt Q07002); test: NanoBRET live-cell target engagement, CDK18-NanoLuc/Cyclin Y in HEK-293; format: binding; conditions: 10µM, read-out: CDK18/Y Inhibition at 10µM (%)
# CDK10/Cyclin L2 = CDK10/Cyclin L2 (Homo sapiens, UniProt Q15131); test: NanoBRET live-cell target engagement, CDK10-NanoLuc/Cyclin L2 in HEK-293; conditions: read-out: CDK10/L2 Inhibition at 10µM (%), 10µM
# CDK9/Cyclin K = CDK9/Cyclin K (Homo sapiens, UniProt P50750); test: NanoBRET live-cell target engagement, NanoLuc-CDK9/Cyclin K in HEK-293; format: binding; conditions: 10µM, read-out: CDK9/K Inhibition at 10µM (%)
# CDK9/Cyclin K, sequence (P50750 whole entry): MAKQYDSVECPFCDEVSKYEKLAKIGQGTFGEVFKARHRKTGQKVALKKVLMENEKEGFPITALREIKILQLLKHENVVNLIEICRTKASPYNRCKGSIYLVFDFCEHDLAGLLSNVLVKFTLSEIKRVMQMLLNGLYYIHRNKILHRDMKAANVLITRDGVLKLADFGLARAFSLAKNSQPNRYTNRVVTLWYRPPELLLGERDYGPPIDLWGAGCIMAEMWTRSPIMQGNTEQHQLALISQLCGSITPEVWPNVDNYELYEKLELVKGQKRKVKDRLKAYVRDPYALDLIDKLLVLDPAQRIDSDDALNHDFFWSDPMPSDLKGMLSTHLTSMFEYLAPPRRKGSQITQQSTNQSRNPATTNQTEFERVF
# CDK9/Cyclin K, sequence (O75909 whole entry partner): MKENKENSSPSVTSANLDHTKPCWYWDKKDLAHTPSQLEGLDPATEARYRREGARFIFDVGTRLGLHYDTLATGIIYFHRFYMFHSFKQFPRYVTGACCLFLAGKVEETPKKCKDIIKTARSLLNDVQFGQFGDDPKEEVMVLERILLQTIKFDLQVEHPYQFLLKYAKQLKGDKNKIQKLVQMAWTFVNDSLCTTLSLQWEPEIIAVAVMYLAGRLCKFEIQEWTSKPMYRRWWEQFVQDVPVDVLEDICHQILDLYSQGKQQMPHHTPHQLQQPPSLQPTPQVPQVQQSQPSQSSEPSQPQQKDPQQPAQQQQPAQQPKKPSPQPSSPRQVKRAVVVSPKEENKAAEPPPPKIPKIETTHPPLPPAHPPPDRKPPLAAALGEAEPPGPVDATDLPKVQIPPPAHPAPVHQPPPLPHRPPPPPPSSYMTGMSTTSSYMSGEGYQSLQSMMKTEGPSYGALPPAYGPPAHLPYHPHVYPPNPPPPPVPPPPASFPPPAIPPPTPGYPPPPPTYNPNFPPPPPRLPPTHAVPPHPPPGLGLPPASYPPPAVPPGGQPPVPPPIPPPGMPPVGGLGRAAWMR
# CDK16/Cyclin Y = CDK16/Cyclin Y (Homo sapiens, UniProt Q00536); test: NanoBRET live-cell target engagement, CDK16-NanoLuc/Cyclin Y in HEK-293; format: binding; conditions: 10µM, read-out: CDK16/Y Inhibition at 10µM (%)
# CDK13/Cyclin K = CDK13/Cyclin K (Homo sapiens, UniProt Q14004); test: NanoBRET live-cell target engagement, CDK13-NanoLuc/Cyclin K in HEK-293; format: binding; conditions: 10µM, read-out: CDK13/K Inhibition at 10µM (%)
# CDK13/Cyclin K, sequence (O75909 whole entry): as the sequence (O75909 whole entry partner) above
# CDK13/Cyclin K, sequence (Q14004 other isoform, or with tags, fused parts or gaps): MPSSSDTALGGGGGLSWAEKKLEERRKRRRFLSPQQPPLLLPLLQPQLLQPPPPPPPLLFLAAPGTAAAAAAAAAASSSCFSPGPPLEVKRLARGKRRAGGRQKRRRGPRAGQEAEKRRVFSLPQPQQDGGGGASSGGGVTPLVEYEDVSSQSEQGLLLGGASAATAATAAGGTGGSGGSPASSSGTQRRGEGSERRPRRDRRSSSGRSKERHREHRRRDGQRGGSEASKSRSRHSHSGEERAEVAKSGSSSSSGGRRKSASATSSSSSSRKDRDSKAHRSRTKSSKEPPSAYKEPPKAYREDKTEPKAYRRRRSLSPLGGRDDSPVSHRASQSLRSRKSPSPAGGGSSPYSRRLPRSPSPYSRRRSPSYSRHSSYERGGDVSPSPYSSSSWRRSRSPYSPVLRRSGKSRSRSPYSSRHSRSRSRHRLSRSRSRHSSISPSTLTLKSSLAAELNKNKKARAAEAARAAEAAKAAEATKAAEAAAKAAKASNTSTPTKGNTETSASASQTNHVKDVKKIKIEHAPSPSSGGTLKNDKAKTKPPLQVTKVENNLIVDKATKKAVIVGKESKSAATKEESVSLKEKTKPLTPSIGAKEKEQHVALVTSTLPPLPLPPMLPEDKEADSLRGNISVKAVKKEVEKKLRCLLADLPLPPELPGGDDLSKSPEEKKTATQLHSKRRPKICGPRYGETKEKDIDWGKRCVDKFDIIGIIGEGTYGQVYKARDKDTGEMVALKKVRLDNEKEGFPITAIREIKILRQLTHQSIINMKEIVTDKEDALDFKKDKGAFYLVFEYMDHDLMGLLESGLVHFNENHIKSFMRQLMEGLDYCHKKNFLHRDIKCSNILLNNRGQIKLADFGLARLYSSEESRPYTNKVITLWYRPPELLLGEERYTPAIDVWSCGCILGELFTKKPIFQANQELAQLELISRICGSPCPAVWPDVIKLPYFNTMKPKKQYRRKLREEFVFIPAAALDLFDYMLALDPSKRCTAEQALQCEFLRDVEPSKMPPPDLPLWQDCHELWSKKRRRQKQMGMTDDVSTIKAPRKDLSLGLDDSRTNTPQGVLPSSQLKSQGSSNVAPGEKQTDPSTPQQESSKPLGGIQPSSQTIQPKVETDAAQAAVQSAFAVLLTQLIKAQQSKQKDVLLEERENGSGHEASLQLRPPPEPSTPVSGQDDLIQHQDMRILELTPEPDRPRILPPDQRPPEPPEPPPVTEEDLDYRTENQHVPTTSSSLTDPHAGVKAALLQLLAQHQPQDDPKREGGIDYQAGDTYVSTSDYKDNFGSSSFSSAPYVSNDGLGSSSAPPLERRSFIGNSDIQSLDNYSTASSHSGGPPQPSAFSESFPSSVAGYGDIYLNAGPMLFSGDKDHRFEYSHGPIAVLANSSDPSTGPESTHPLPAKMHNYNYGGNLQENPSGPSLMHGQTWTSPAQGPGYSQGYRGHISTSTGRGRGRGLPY
# CDK1/Cyclin E1 = CDK1/Cyclin E1 (Homo sapiens, UniProt P06493); test: NanoBRET live-cell target engagement, CDK1-NanoLuc/Cyclin E1 in HEK-293; format: binding; conditions: for inhibition at 10 µM: read-out: CDK1/E1 Inhibition at 10µM (%); for IC50: read-out: CDK1/E1 IC50
# CDK12/Cyclin K = CDK12/Cyclin K (Homo sapiens, UniProt Q9NYV4); test: NanoBRET live-cell target engagement, CDK12-NanoLuc/Cyclin K in HEK-293; format: binding; conditions: 10µM, read-out: CDK12/K Inhibition at 10µM (%)
# CDK19/Cyclin C = CDK19/Cyclin C (Homo sapiens, UniProt Q9BWU1); test: NanoBRET live-cell target engagement, NanoLuc-CDK19/Cyclin C in HEK-293; conditions: read-out: CDK19/C Inhibition at 10µM (%), 10µM
# CDK6/Cyclin D1 = CDK6/Cyclin D1 (Homo sapiens, UniProt Q00534); test: NanoBRET live-cell target engagement, NanoLuc-CDK6/Cyclin D1 in HEK-293; format: binding; conditions: for inhibition at 10 µM: read-out: CDK6/D1 Inhibition at 10µM (%); for IC50: read-out: CDK6/D1 IC50
# CDK6/Cyclin D1, sequence (Q00534 whole entry): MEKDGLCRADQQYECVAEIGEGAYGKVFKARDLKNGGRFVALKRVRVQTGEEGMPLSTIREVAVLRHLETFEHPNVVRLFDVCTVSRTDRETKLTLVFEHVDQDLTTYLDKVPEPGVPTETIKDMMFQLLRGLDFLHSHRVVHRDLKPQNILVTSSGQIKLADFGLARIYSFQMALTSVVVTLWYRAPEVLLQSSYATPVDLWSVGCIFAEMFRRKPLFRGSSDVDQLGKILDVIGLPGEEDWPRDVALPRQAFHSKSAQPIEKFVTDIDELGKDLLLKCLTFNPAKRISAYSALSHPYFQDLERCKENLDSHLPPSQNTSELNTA
# CDK6/Cyclin D1, sequence (P24385 whole entry partner): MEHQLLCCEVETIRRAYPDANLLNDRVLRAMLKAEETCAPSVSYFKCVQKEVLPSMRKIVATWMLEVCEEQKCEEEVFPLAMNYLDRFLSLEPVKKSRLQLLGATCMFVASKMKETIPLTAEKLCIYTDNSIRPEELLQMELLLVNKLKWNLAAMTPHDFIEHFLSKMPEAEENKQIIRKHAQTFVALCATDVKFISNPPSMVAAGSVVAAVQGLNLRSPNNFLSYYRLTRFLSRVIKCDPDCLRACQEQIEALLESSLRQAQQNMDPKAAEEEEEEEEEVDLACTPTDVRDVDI
# CDK15/Cyclin Y = CDK15/Cyclin Y (Homo sapiens, UniProt Q96Q40); test: NanoBRET live-cell target engagement, NanoLuc-CDK15/Cyclin Y in HEK-293; format: binding; conditions: 10µM, read-out: CDK15/Y Inhibition at 10µM (%)
# CDK15/Cyclin Y, sequence (Q96Q40 whole entry): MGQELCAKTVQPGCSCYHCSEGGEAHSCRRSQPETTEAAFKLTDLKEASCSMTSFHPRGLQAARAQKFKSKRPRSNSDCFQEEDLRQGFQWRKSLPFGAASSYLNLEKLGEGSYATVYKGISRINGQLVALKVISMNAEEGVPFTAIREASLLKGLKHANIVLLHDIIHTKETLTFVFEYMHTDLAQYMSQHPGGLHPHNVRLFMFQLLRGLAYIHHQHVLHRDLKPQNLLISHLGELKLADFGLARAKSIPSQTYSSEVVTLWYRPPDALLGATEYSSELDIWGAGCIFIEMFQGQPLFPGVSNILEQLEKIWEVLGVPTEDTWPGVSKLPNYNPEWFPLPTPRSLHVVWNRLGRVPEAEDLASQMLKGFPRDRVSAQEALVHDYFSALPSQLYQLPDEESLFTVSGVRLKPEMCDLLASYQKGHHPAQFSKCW
# CDK15/Cyclin Y, sequence (Q8ND76 whole entry partner): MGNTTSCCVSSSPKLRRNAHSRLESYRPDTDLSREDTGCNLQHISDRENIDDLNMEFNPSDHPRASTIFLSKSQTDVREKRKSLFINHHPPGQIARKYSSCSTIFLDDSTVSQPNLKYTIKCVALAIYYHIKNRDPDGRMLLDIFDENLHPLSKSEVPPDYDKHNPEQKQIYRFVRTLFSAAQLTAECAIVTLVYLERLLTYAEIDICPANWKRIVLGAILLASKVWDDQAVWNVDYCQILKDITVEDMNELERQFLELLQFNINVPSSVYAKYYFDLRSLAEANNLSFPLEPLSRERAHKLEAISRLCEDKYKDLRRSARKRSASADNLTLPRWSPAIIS
# CDK17/Cyclin Y = CDK17/Cyclin Y (Homo sapiens, UniProt Q00537); test: NanoBRET live-cell target engagement, CDK17-NanoLuc/Cyclin Y in HEK-293; format: binding; conditions: 10µM, read-out: CDK17/Y Inhibition at 10µM (%)
# CDK17/Cyclin Y, sequence (Q00537 whole entry): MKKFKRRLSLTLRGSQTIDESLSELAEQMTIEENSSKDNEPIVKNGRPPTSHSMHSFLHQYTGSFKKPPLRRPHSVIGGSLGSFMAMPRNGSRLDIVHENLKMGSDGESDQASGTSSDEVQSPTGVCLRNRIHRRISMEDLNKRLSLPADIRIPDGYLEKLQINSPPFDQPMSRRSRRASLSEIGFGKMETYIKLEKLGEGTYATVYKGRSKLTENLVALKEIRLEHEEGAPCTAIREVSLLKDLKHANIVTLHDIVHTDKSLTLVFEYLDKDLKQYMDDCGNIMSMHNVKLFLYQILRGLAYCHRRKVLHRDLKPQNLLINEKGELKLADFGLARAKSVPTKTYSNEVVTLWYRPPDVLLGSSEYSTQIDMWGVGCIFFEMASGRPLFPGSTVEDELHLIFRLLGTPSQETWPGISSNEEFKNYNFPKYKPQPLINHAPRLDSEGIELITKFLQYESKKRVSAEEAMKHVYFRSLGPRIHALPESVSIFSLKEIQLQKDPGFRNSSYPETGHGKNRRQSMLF
# CDK17/Cyclin Y, sequence (Q8ND76 whole entry partner): as the sequence (Q8ND76 whole entry partner) above
# CDK4/Cyclin D1 = CDK4/Cyclin D1 (Homo sapiens, UniProt P11802); test: NanoBRET live-cell target engagement, NanoLuc-CDK4/Cyclin D1 in HEK-293; format: binding; conditions: for inhibition at 10 µM: read-out: CDK4/D1 Inhibition at 10µM (%); for IC50: read-out: CDK4/D1 IC50
# CDK5/CDK5R1 = CDK5/CDK5R1 (Homo sapiens, UniProt Q00535); test: NanoBRET live-cell target engagement, CDK5-NanoLuc/CDK5R1 in HEK-293; format: binding; conditions: for inhibition at 10 µM: read-out: CDK5/CDK5R1 Inhibition at 10µM (%); for IC50: read-out: CDK5/CDK5R1 IC50
# CDK20/Cyclin H = CDK20/Cyclin H (Homo sapiens, UniProt Q8IZL9); test: NanoBRET live-cell target engagement, NanoLuc-CDK20/Cyclin H in HEK-293; format: binding; conditions: 10µM, read-out: CDK20/H Inhibition at 10µM (%)
# CDK3/Cyclin E1 = CDK3/Cyclin E1 (Homo sapiens, UniProt Q00526); test: NanoBRET live-cell target engagement, CDK3-NanoLuc/Cyclin E1 in HEK-293; format: binding; conditions: for inhibition at 10 µM: read-out: CDK3/E1 Inhibition at 10µM (%); for IC50: read-out: CDK3/E1 IC50
# CDK8/Cyclin C = CDK8/Cyclin C (Homo sapiens, UniProt P49336); test: NanoBRET live-cell target engagement, NanoLuc-CDK8/Cyclin C in HEK-293; format: binding; conditions: 10µM, read-out: CDK8/C Inhibition at 10µM (%)
# CDK11B/Cyclin L2 = CDK11B/Cyclin L2 (Homo sapiens, UniProt P21127); test: NanoBRET live-cell target engagement, CDK11B-NanoLuc/Cyclin L2 in HEK-293; format: binding; conditions: 10µM, read-out: CDK11b/L2 Inhibition at 10µM (%)
# CDK2/Cyclin E1 = CDK2/Cyclin E1 (Homo sapiens, UniProt P24941); test: NanoBRET live-cell target engagement, CDK2-NanoLuc/Cyclin E1 in HEK-293; format: binding; conditions: 10µM, read-out: CDK2/E1 Inhibition at 10µM (%)
# CDK11A/Cyclin L2 = molecular target: T1, CDK11A/Cyclin L2 (Homo sapiens, UniProt Q9UQ88); test: NanoBRET live-cell target engagement, CDK11A-NanoLuc/Cyclin L2 in HEK-293; format: binding; conditions: 10µM, read-out: CDK11a/L2 Inhibition at 10µM (%)
# T1 sequence (Q9UQ88 1-783): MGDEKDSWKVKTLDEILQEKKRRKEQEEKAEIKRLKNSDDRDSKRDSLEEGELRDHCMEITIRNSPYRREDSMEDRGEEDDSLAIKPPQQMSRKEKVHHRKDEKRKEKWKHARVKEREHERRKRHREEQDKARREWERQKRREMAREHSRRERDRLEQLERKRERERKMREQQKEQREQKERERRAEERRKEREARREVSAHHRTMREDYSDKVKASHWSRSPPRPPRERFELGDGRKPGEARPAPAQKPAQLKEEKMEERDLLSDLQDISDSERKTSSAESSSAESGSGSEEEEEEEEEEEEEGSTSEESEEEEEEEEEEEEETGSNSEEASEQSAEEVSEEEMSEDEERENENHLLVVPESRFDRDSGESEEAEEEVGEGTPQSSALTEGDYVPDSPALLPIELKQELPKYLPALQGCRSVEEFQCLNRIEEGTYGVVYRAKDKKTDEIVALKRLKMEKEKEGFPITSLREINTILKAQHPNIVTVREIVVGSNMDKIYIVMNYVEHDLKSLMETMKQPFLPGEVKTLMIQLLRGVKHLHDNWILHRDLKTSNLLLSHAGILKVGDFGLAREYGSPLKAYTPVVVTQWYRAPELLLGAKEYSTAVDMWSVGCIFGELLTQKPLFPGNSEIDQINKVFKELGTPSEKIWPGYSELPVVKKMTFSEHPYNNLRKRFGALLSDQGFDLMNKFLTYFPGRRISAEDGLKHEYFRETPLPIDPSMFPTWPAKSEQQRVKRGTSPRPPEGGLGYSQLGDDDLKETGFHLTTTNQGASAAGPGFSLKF
# CDK18/Cyclin Y, sequence (Q07002 whole entry): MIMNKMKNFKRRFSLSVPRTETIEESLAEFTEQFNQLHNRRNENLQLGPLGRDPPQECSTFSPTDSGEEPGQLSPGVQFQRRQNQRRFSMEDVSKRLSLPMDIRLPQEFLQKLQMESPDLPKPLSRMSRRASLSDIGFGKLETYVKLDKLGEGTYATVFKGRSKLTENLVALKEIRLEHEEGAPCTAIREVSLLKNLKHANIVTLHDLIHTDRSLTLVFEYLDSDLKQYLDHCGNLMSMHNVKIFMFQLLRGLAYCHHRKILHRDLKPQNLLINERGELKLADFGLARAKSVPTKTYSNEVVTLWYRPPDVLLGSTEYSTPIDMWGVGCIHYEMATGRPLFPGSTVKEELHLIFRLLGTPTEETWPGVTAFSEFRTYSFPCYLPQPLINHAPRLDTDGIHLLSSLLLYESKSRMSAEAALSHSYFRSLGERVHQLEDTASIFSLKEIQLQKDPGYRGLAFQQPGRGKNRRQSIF
# CDK18/Cyclin Y, sequence (Q8ND76 whole entry partner): as the sequence (Q8ND76 whole entry partner) above
smiles,measurement,setting,value
CC(C)CC(=O)Nc1[nH]nc2c1CN(C(=O)C1CCN(C)CC1)C2(C)C [PHA-793887],inhibition at 10 µM,CDK18/Cyclin Y; average of experiments,91.7%
same,inhibition at 10 µM,CDK18/Cyclin Y; independent experiment 1,86.8%
same,inhibition at 10 µM,CDK18/Cyclin Y; independent experiment 2,96.6%
same,inhibition at 10 µM,CDK10/Cyclin L2; average of experiments,30%
same,inhibition at 10 µM,CDK10/Cyclin L2; independent experiment 1,32.9%
same,inhibition at 10 µM,CDK10/Cyclin L2; independent experiment 2,27.2%
same,inhibition at 10 µM,CDK9/Cyclin K; average of experiments,86%
same,inhibition at 10 µM,CDK9/Cyclin K; independent experiment 1,87.8%
same,inhibition at 10 µM,CDK9/Cyclin K; independent experiment 2,84.1%
same,inhibition at 10 µM,CDK16/Cyclin Y; independent experiment 1,84.5%
same,inhibition at 10 µM,CDK16/Cyclin Y; independent experiment 2,87%
same,inhibition at 10 µM,CDK13/Cyclin K; average of experiments,17.1%
same,inhibition at 10 µM,CDK13/Cyclin K; independent experiment 1,23.7%
same,inhibition at 10 µM,CDK13/Cyclin K; independent experiment 2,10.4%
same,inhibition at 10 µM,CDK1/Cyclin E1; average of experiments,71.4%
same,inhibition at 10 µM,CDK1/Cyclin E1; independent experiment 1,72%
same,inhibition at 10 µM,CDK1/Cyclin E1; independent experiment 2,70.8%
same,IC50,CDK1/Cyclin E1; average (± SEM where n=3),820 nM
same,IC50,CDK1/Cyclin E1; independent experiment 1,800 nM
same,IC50,CDK1/Cyclin E1; independent experiment 2,850 nM
same,inhibition at 10 µM,CDK12/Cyclin K; average of experiments,31.4%
same,inhibition at 10 µM,CDK12/Cyclin K; independent experiment 1,33%
same,inhibition at 10 µM,CDK12/Cyclin K; independent experiment 2,29.9%
same,inhibition at 10 µM,CDK19/Cyclin C; average of experiments,52.6%
same,inhibition at 10 µM,CDK19/Cyclin C; independent experiment 1,63.4%
same,inhibition at 10 µM,CDK19/Cyclin C; independent experiment 2,41.9%
same,inhibition at 10 µM,CDK6/Cyclin D1; average of experiments,88.3%
same,inhibition at 10 µM,CDK6/Cyclin D1; independent experiment 1,84.9%
same,inhibition at 10 µM,CDK6/Cyclin D1; independent experiment 2,91.6%
same,IC50,CDK6/Cyclin D1; average (± SEM where n=3),430 nM
same,IC50,CDK6/Cyclin D1; independent experiment 1,374 nM
same,IC50,CDK6/Cyclin D1; independent experiment 2,480 nM
same,inhibition at 10 µM,CDK15/Cyclin Y; average of experiments,72.5%
same,inhibition at 10 µM,CDK15/Cyclin Y; independent experiment 1,72.6%
same,inhibition at 10 µM,CDK15/Cyclin Y; independent experiment 2,72.5%
same,inhibition at 10 µM,CDK17/Cyclin Y; average of experiments,86.9%
same,inhibition at 10 µM,CDK17/Cyclin Y; independent experiment 1,86.4%
same,inhibition at 10 µM,CDK17/Cyclin Y; independent experiment 2,87.4%
same,inhibition at 10 µM,CDK4/Cyclin D1; average of experiments,83.1%
same,inhibition at 10 µM,CDK4/Cyclin D1; independent experiment 1,82.5%
same,inhibition at 10 µM,CDK4/Cyclin D1; independent experiment 2,83.8%
same,IC50,CDK4/Cyclin D1; average (± SEM where n=3),320 nM
same,IC50,CDK4/Cyclin D1; independent experiment 1,122 nM
same,IC50,CDK4/Cyclin D1; independent experiment 2,510 nM
same,inhibition at 10 µM,CDK5/CDK5R1; average of experiments,92%
same,inhibition at 10 µM,CDK5/CDK5R1; independent experiment 1,89.9%
same,inhibition at 10 µM,CDK5/CDK5R1; independent experiment 2,94.2%
same,IC50,CDK5/CDK5R1; average (± SEM where n=3),360 nM
same,IC50,CDK5/CDK5R1; independent experiment 1,422 nM
same,IC50,CDK5/CDK5R1; independent experiment 2,300 nM
same,inhibition at 10 µM,CDK20/Cyclin H; independent experiment 1,5.8%
same,inhibition at 10 µM,CDK20/Cyclin H; independent experiment 2,16.7%
same,inhibition at 10 µM,CDK3/Cyclin E1; average of experiments,93.2%
same,inhibition at 10 µM,CDK3/Cyclin E1; independent experiment 1,93.4%
same,inhibition at 10 µM,CDK3/Cyclin E1; independent experiment 2,93%
same,IC50,CDK3/Cyclin E1; average (± SEM where n=3),280 nM
same,IC50,CDK3/Cyclin E1; independent experiment 1,165 nM
same,IC50,CDK3/Cyclin E1; independent experiment 2,394 nM
same,inhibition at 10 µM,CDK8/Cyclin C; average of experiments,57.2%
same,inhibition at 10 µM,CDK8/Cyclin C; independent experiment 1,65.2%
same,inhibition at 10 µM,CDK8/Cyclin C; independent experiment 2,49.1%
same,inhibition at 10 µM,CDK11B/Cyclin L2; average of experiments,56.3%
same,inhibition at 10 µM,CDK11B/Cyclin L2; independent experiment 1,57.8%
same,inhibition at 10 µM,CDK11B/Cyclin L2; independent experiment 2,54.7%
same,inhibition at 10 µM,CDK2/Cyclin E1; average of experiments,96%
same,inhibition at 10 µM,CDK2/Cyclin E1; independent experiment 1,95.7%
same,inhibition at 10 µM,CDK2/Cyclin E1; independent experiment 2,96.3%
same,inhibition at 10 µM,CDK11A/Cyclin L2; average of experiments,50.1%
same,inhibition at 10 µM,CDK11A/Cyclin L2; independent experiment 1,50.7%
same,inhibition at 10 µM,CDK11A/Cyclin L2; independent experiment 2,49.4%
